# Measured values: patent publication US11078170B2 (Assembly Biosciences, Inc., priority 2017, dated 2021)
# Tested on: HBV viral production from HepAD38 cells
# Assay: Activity of test compounds on viral production from HepAD38 cells (viral load by qPCR of HBV core sequence in supernatant)
# Format: cell-based
# Conditions: Hepatitis B virus, 120 h, 5 days incubation, HBV DNA in supernatant by qPCR, top concentration 10 μM, read-out: Viral Load EC50 Activity range
# In short: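 HepAD38 cells, 50,000/well in tetracycline-free 2% FBS medium, treated 5 days at 37° C. with compound from 10 μM top concentration. HBV DNA in supernatant quantified by TaqMan qPCR of core sequence against DNA standards, relative to DMSO wells; CellTiter-Glo viability read in parallel. EC50/CC50 from four-parameter logistic fit.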
row,SMILES,EC50
1,"CN1[C@H](C(=O)Nc2ccc(F)c(Cl)c2)C[C@@H](c2ccc(Br)s2)NS1(=O)=O [HBV-CSU-114-Trans-ISO-II, (3S,5S)-5-(5-bromothiophen-2-yl)-N-(3-chloro-4-fluorophenyl)-2-methyl-1,2,6-thiadiazinane-3-carboxamide 1,1-dioxide]",1000 to 5000 nM
2,"CN1C(C(=O)Nc2ccc(F)c(Cl)c2)CC(c2ccccn2)NS1(=O)=O (racemic) [HBV-CSU-031, Cis-N-(3-Chloro-4-fluorophenyl)-2-methyl-5-(pyridin-2-yl)-1,2,6-thiadiazinane-3-carboxamide 1,1-dioxide]",< 1000 nM
3,"CN1[C@@H](C(=O)Nc2ccc(F)c(Cl)c2)C[C@@H](c2ccon2)NS1(=O)=O [HBV-CSU-055-ISO-II, Cis-N-(3-chloro-4-fluorophenyl)-5-(isoxazol-3-yl)-2-methyl-1,2,6-thiadiazinane-3-carboxamide 1,1-dioxide]",> 5000 nM
4,"CN1C(C(=O)Nc2ccc(F)c(Cl)c2)CC(c2ccc(C(=O)O)cc2)NS1(=O)=O (racemic) [HBV-CSU-218, Cis-4-(5-((3-Chloro-4-fluorophenyl)carbamoyl)-6-methyl-1,1-dioxido-1,2,6-thiadiazinan-3-yl)benzoic acid]",1000 to 5000 nM
5,"CN1[C@@H](C(=O)Nc2ccc(F)c(Cl)c2)C[C@@H](c2ccc(-c3cnn(C)c3)s2)NS1(=O)=O [HBV-CSU-161-ISO-II, Cis-N-(3-chloro-4-fluorophenyl)-2-methyl-5-(5-(1-methyl-1H-pyrazol-4-yl)thiophen-2-yl)-1,2,6-thiadiazinane-3-carboxamide 1,1-dioxide]",1000 to 5000 nM
6,"CN1[C@@H](C(=O)Nc2ccc(F)c(Cl)c2)C[C@@H](c2ccc(-c3ccn(C)n3)s2)NS1(=O)=O [HBV-CSU-270-ISO-II, Cis-N-(3-Chloro-4-fluorophenyl)-2-methyl-5-(5-(1-methyl-1H-pyrazol-3-yl)thiophen-2-yl)-1,2,6-thiadiazinane-3-carboxamide 1,1-dioxide]",1000 to 5000 nM
7,"CN1[C@H](C(=O)Nc2ccc(F)c(Cl)c2)C[C@H](c2ncc(-c3cncn3C)s2)NS1(=O)=O [HBV-CSU-277-ISO-I, Cis-N-(3-Chloro-4-fluorophenyl)-2-methyl-5-(5-(1-methyl-1H-imidazol-5-yl)thiazol-2-yl)-1,2,6-thiadiazinane-3-carboxamide 1,1-dioxide]",< 1000 nM
8,"CN1C(C(=O)Nc2ccc(F)c(Cl)c2)CC(c2ccc(F)cc2)NS1(=O)=O (stereo not drawn) [HBV-CSU-112 (Cis), Cis-N-(3-Chloro-4-fluorophenyl)-5-(4-fluorophenyl)-2-methyl-1,2,6-thiadiazinane-3-carboxamide 1,1-dioxide]",< 1000 nM
9,"CN1[C@H](C(=O)Nc2cccc(Cl)c2)C[C@H](c2cccs2)NS1(=O)=O [HBV-CSU-010-ISO-I, Cis-N-(3-chlorophenyl)-2-methyl-5-(thiophen-2-yl)-1,2,6-thiadiazinane-3-carboxamide 1,1-dioxide]",< 1000 nM
10,"CN1[C@@H](C(=O)Nc2ccc(F)c(Cl)c2)C[C@@H](c2ccsn2)NS1(=O)=O (relative stereo) [HBV-CSU-056-ISO-II, Cis-N-(3-chloro-4-fluorophenyl)-5-(isothiazol-3-yl)-2-methyl-1,2,6-thiadiazinane-3-carboxamide 1,1-dioxide]",> 5000 nM
11,CN1[C@H](C(=O)Nc2ccc(F)c(Cl)c2)C[C@H](c2ccc(-c3ccc(F)cc3)s2)NS1(=O)=O [HBV-CSU-238-ISO-I],< 1000 nM
12,"CN1C(C(=O)Nc2ccc(F)c(Cl)c2)CC(c2cc(-c3ccn(C)n3)cs2)NS1(=O)=O (racemic) [HBV-CSU-288, Cis-N-(3-Chloro-4-fluorophenyl)-2-methyl-5-(4-(1-methyl-1H-pyrazol-3-yl)thiophen-2-yl)-1,2,6-thiadiazinane-3-carboxamide 1,1-dioxide]",< 1000 nM
13,"CN1C(C(=O)Nc2ccc(F)c(Cl)c2)CC(c2ccc(-c3ncnn3C)s2)NS1(=O)=O (racemic) [HBV-CSU-323, Cis-N-(3-Chloro-4-fluorophenyl)-2-methyl-5-(5-(1-methyl-1H-1,2,4-triazol-5-yl)thiophen-2-yl)-1,2,6-thiadiazinane-3-carboxamide 1,1-dioxide]",< 1000 nM
